Laboratory results as given in paper PMC3164776 (Biochemistry, 2010).
Several values for one entry are separate records, joined by “and”; a condition that tells them apart may be missing. Identical values can stand only once. Like-named read-outs stand apart in the source and are kept apart here. Blank lines part the entries; values can stand above or below the molecule they belong to.

Legend:
[1] = system: KB-V1 cells; details: for effect on MDR phenotype: cytotoxicity of paclitaxel and vinblastine, Supplemental Information 2; for change of LD50 / resistance in presence of 5-CHInd: 10 μM 5-CHInd over 72 hours, Figure 4A
[2] = molecular target: P-gp (MDCK-MDR1 monolayers) (Homo sapiens, UniProt P08183); assay: Monolayer efflux experiment, MDCK-MDR1 monolayers
[3] = molecular target: T1, P-gp (Homo sapiens, UniProt P08183); assay: P-gp ATPase assay, hydrolysis of [γ-32P]-ATP by P-gp membranes; format: biochemical
[4] = system: KB3-1 cells; assay: MTT cytotoxicity assay in KB3-1 cells; format: cell-based
[5] = system: MDCK monolayers; assay: Monolayer efflux experiment, MDCK monolayers; details: substance alone (10 μM 5-CHInd, 3 μM rhodamine 123, 4 μM calcein-AM)
[6] = molecular target: T1, P-gp; assay: PDSP cell-based screen: accumulation of calcein-AM in Caco-2 cells; details: analogs of the screened nucleoside library
[7] = molecular target: P-gp (MDR1) (Homo sapiens, UniProt P08183); assay: Monolayer efflux experiment, MDCK-MDR1 monolayers; details: dog
[8] = Monolayer efflux experiment, MDCK monolayers; details: dog
[9] = substance alone (10 μM 5-CHInd, 3 μM rhodamine 123, 4 μM calcein-AM), mean ± SEM

T1 sequence (P08183 whole entry): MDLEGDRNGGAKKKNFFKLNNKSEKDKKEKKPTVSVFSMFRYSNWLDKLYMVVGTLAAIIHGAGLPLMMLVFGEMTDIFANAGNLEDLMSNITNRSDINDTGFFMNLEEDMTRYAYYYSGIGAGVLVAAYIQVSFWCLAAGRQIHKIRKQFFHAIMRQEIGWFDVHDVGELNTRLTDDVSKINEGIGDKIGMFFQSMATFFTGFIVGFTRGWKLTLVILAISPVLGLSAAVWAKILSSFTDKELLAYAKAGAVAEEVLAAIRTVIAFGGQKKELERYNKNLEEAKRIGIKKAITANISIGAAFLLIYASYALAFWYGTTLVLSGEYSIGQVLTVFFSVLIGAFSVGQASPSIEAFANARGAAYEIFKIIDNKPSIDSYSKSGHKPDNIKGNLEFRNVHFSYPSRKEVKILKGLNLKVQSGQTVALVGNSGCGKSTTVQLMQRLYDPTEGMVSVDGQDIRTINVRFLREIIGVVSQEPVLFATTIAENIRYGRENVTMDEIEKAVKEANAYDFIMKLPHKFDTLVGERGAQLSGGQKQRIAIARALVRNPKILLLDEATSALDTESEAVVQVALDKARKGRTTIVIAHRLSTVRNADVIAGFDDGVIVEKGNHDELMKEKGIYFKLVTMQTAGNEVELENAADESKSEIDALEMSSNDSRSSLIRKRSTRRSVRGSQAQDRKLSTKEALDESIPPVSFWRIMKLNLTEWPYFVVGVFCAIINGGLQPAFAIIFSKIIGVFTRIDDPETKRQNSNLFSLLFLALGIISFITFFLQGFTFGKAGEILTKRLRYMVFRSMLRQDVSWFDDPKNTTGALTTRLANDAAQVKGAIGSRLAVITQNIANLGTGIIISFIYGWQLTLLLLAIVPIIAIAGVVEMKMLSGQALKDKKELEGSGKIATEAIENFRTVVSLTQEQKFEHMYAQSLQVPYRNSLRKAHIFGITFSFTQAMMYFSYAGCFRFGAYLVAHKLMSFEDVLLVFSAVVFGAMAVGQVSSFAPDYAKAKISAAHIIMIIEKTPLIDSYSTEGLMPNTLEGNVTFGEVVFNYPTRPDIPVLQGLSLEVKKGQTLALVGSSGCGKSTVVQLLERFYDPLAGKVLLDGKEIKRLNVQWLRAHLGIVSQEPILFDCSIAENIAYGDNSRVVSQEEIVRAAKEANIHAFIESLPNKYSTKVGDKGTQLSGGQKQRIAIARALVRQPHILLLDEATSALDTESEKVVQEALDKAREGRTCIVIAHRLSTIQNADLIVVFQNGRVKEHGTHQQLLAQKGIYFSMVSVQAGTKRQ
P-gp (MDCK-MDR1 monolayers), sequence (P08183 whole entry): as above
P-gp (MDR1), sequence (P08183 whole entry): as above

Molecule: OC[C@H]1O[C@@H](n2ccc3cc(C4=CCCCC4)ccc32)C[C@@H]1O [5-CEInd, 5-cyclohexene indolyl 2′-deoxyribose]
effect on MDR phenotype ([1]; KB-V1): no significant effects on MDR phenotype

Molecule: OC[C@H]1O[C@@H](n2ccc3cc(C4CCCCC4)ccc32)C[C@@H]1O [5-CHInd, 5-cyclohexyl indolyl 2′-deoxyribose]
BL→AP/AP→BL (Peff ratio) [2, 9]: 11.1 and 11.1 ± 2.5 | Ki [3]: 6.5 nM | Km [3]: 0.06 ± 0.01 µM | Vmax [3]: 16 ± 0.2 nmol Pi/min/mg protein | fold by which Ki is lower than Km ([3]; Ki vs Km value of 60 nM): ~ 9 fold | maximal non-toxic dose ([1]; 48 hour period): 50 µM | maximal non-toxic dose ([1]; 72 hour period): 10 µM | LD50 ([1]; KB-V1 (MDR positive), 72 hours post-treatment, MTT): 44 ± 5 µM | concentration at which cytotoxic ([1]; MTT assay): greater than 50 μM | LD50 ([4]; KB3-1 MDR −/−, 72 hours post-treatment, MTT): 45 ± 3 µM | BL→AP/AP→BL (Peff ratio) [5]: 8.7 ± 1.3

interaction with P-gp [6]: do not interact with P-gp
Molecule: O=[N+]([O-])c1ccc2c(ccn2C2CC(O)C(CO)O2)c1 (stereo not shown) [5-NInd]

Molecule: OC[C@H]1O[C@@H](n2ccc3cc(-c4ccccc4)ccc32)C[C@@H]1O [5-PhInd, 5-phenyl indolyl 2′-deoxyribose]
effect on MDR phenotype ([1]; KB-V1): no significant effects on MDR phenotype

Molecule: COc1cc2c(c(OC)c1OC)-c1ccc(OC)c(=O)cc1[C@@H](NC(C)=O)CC2 [Colchicine, reference compound]
Km [3]: 37 ± 8 µM | change of LD50 / resistance in presence of 5-CHInd ([1]; KB-V1): did not influence the LD50 values

Molecule: COc1cccc2c1C(=O)c1c(O)c3c(c(O)c1C2=O)C[C@@](O)(C(=O)CO)C[C@@H]3O[C@H]1C[C@H](N)[C@H](O)[C@H](C)O1 [Doxorubicin, reference compound]
change of LD50 / resistance in presence of 5-CHInd ([1]; KB-V1): cells become more resistant

Molecule: CC(=O)O[C@H]1C(=O)[C@@]2(C)[C@H]([C@H](OC(=O)c3ccccc3)[C@]3(O)C[C@H](OC(=O)[C@H](O)[C@@H](NC(=O)c4ccccc4)c4ccccc4)C(C)=C1C3(C)C)[C@]1(OC(C)=O)CO[C@@H]1C[C@@H]2O [Paclitaxel, reference compound]
change of LD50 / resistance in presence of 5-CHInd ([1]; KB-V1): decreases | LD50 ([1]; KB-V1, 48 hours, in presence of 50 μM 5-CHInd): 0.49 ± 0.03 µM | LD50 ([1]; KB-V1, 48 hours, no treatment with 5-CHInd): 4.0 ± 0.24 µM | potentiating effect of 5-CHInd ([4]; KB3-1, does not overexpress P-gp, Supplemental Information 1): not observed

efflux ratio at 60 min, 3 μM [7]: 72.7 ± 15.3 | BL→AP/AP→BL (Peff ratio) [2, 9]: 72.7 | efflux ratio at 60 min, 3 μM [8]: 1.2 ± 0.2
Molecule: COC(=O)c1ccccc1-c1c2ccc(=N)cc-2oc2cc(N)ccc12 [Rhodamine 123]

Molecule: CC[C@]1(O)C[C@@H]2CN(CCc3c([nH]c4ccccc34)[C@@](C(=O)OC)(c3cc4c(cc3OC)N(C)[C@H]3[C@@](O)(C(=O)OC)[C@H](OC(C)=O)[C@]5(CC)C=CCN6CC[C@]43[C@@H]65)C2)C1 [Vinblastine, reference compound]
change of LD50 / resistance in presence of 5-CHInd ([1]; KB-V1): cells become more resistant

Molecule: Calcein-AM
BL→AP/AP→BL (Peff ratio) ([2]; 4 μM calcein-AM + 10 μM 5-CHInd): ~ 1 | BL→AP/AP→BL (Peff ratio) [2, 9]: 2940 ± 120 | BL→AP/AP→BL (Peff ratio) [5]: 2.6 ± 0.3
